According to US20100254965A1, “Adenosine Signaling in Diagnosis, Treatment, and Prevention of Priapism and Erectile Dysfunction” (BOARD OF REGENTS ,THE UNIVERSITY OF TEXAS SYSTEM, priority 2006, published 2010):

Experiments:
[1] = test system: corpus cavernosal strips (CCS); assay: EFS-induced cAMP in CCS of ADA+ and ADA-/- mice; type: cell-based, mouse; conditions: CCS of either ADA-/- or ADA+ mice, EFS 5V 30 Hz; MRS1706 (10 nM), ZM241385 (50 nM), L-NAME (100 μM)
Experimental: FIG. 19. EFS leads to increased cAMP and cGMP production via A2BR in ADA-deficient mice. (a-b) Corpus cavernosal strips (CCS) of the ADA−/− and ADA+ mice were isolated and treated with 10 μM phenylephrine (PE) to induce precontraction. Then CCS were treated with MRS1706 (10 nM), ZM241385 (50 nM) or L-NAME (100 μM) prior to electrical field stimulation (EFS) at 5V and 30 Hz. 60 second after nerve stimulation, the CCS were quickly frozen and cellular cAMP (a) and cGMP (b) were measured by using commercial enzyme immunoassay kit (Amersham Pharmacia). N=4. Data are expressed as mean±SE. *p<0.05, ADA deficient mice versus the control; **p<0.05, CCS of ADA-deficient mice with MRS1706 and/or L-NAME treatment versus CCS of ADA-deficient mice without treatment; ***p<0.05, CCS of the control mice with MRS1706 and/or L-NAME treatment versus CCS of the control mice without treatment.
Function experiments. […] The contractility of each isolated corpus cavernosum smooth muscle cells (CCSM) strip was measured using an isometric force transducer (AD Instrument Inc., Georgia, Vt., USA). […] The contractile responses of the strips were analysed by adding 10 μM phenylephrine to the bath, and force changes were recorded in response to drug application and to electrical field stimulation. […]

[2] = test system: corpus cavernosum of wild type, A2A-deficient and A2B-deficient mice; assay: Intracavernous injection of adenosine: intracavernous pressure (ICP) and penile erection; type: in vivo, mouse
Experimental: FIG. 6. Different amounts of adenosine were injected into the corpus cavernosum of wild type, adenosine receptor A2A-deficient, and adenosine receptor A2B-deficient mice and the resulting change in ICP determined.
Methods: ADA-deficient mice and SCD transgenic mice, a well accepted priapism animal model, are the only animals known in which a persistent and prolonged penile erection occurs spontaneously. […] We have measured intracavernosal pressure and corpus cavernosal strip (CCS) relaxation with or without PEG-ADA treatment and/or a series of adenosine receptor antagonists or agonists in wild type ADA-deficient mice, and corpus cavernosal strip (CCS) relaxation with or without PEG-ADA treatment and/or a series of adenosine receptor antagonists or agonists in SCD transgenic mice, in response to nerve stimulation. We have also measured the intracavernosal pressure and CCS relaxation with or without adenosine treatment in wild type and multiple adenosine receptor deficient mice.

SMILES	EFS-increased cAMP levels were blocked [1]	adenosine-induced increase in ICP ([2]; A2B-deficient mice, injection into the corpus cavernosum)	intracavernous pressure (ICP) and its duration ([2]; wild type mice, administration of adenosine)	penile erection ([2]; wild type mice, local (intracavernous) injection)
CCCn1c(=O)c2[nH]c(-c3ccc(OCC(=O)Nc4ccc(C(C)=O)cc4)cc3)nc2n(CCC)c1=O [MRS1706]	completely blocked			
Nc1ncnc2c1ncn2[C@@H]1O[C@H](CO)[C@@H](O)[C@H]1O [adenosine]		significantly reduced	induced an increase in intracavernous pressure (ICP) and its duration	resulted in penile erection
